Source: patent US7064139B2, “Method for treating retroviral infections” (Uniroyal Chemical Company, Inc., priority 2001, dated 2006)
Converted amounts (≈) assume the structure as drawn. Like-named read-outs stand apart in the source and are kept apart here.

Experiments:
[1] = system: HIV-2 (ROD); assay: Inhibition of HIV-2 syncytium formation in CEM cells; format: cell-based; details: for EC50: Human immunodeficiency virus 2, CCRF-CEM, CEM cells, syncytium formation, day four post infection, read-out: EC50 (ug/ml) HIV-2
In short: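 Human T-lymphoblast CEM cells, suspended at roughly 300,000 cells per ml of culture medium, were infected with about 100 CCID50 of HIV-2 (ROD). Aliquots of 100 μl of infected cells were placed in 200 μl microtiter wells holding 100 μl of serial 5-fold compound dilutions, and syncytium formation was scored microscopically four days after infection.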

[2] = system: MOLT-3 cells; assay: Toxicity in MOLT-3 cells, changes in cell morphology by microscopic examination; format: cell-based, human
Experimental: (§1) Two human immature T-lymphoblastoid cell lines were used: HSB-2, obtained from American Type Culture Collection (No. CCL 120.1); and MOLT-3, purchased from ABI Technologies (Columbia, Md., USA). The cells were propagated in RPMI 1640 medium supplemented with 10% fetal calf serum, 2 mM L-glutamine, 0.075% sodium bicarbonate and gentamycin. The cultures were incubated at 37° C. in a humidified and CO2 controlled incubator.
(§2) The cells were incubated at 37° C. and subcultivated on days four and seven by two-fold dilution in medium containing fresh test compound or control. On days 10–14, the cells were examined microscopically to score the viral cytopathic effect (CPE) visible by the appearance of large ballooning cells and drug toxicity. Then total DNA was extracted from the infected cells with the QIAamp Blood Kit (Qiagen, Germany), using the manufacturer's instructions, and the DNA extracts were frozen at −20° C. until further analysis.
The antiviral IC50 was calculated by extrapolation and defined as the compound concentration that produced 50% inhibition of virus replication as determined by microscopic examination or quantitation of viral DNA. Toxicity of the compounds was expressed as minimum cytotoxic concentration (MCC), or the lowest compound concentration that caused a microscopically visible alteration in cellular morphology.

[3] = system: HHV-6 (Z-29 strain, variant B); assay: Anti-HHV-6 activity in MOLT-3 cells (CPE and viral DNA slot blot); format: cell-based, human herpes virus type 6 (HHV-6); details: Homo sapiens
Experimental: as §1
The GS strain of HHV-6 variant A was kindly provided by Dr. R. Gallo, while the Z-29 strain of HHV-6 variant B was obtained from ABI Technologies (Columbia, Md., USA). For preparation of virus stocks, suspensions of HSB-2 cells infected with strain GS, or MOLT-3 cells infected with strain Z-29, were collected at 10–12 days post infection, when the cytopathic effect (CPE) was maximal and cells were >90% virus positive (as determined by immunofluorescence detection of HHV-6 antigens). Since the titer of virus released in culture supernatant was insufficient, virus stocks were used as whole cell suspensions, which were relatively stable when kept in aliquots at −80° C.
Stock solutions of the test compounds or of standards were prepared in dimethylsulfoxide or phosphate buffered saline (PBS). Working dilutions for the antiviral assays were prepared by appropriate dilution of the stock solutions in cell culture medium. The antiherpetic drug Foscarnet (PFA, Foscavir® from Astra, Södertälje, Sweden) was used as standard.
On day 0, the GS and Z-29 strains of HHV-6 were inoculated onto HSB-2 cells and MOLT-3 cells, respectively, at a multiplicity of infection of 0.001 CCID50 (50% cell culture infective doses) per cell, and a cell suspension having a cell density of approximately 5×10^6 cells per ml of culture medium. After two hours of virus adsorption at 37° C., the unadsorbed virus was removed by centrifugation and the infected cells were resuspended and transferred to 48-well microtrays containing the test compounds or control in two- to five-fold dilutions. The final cell density of the suspended cells was approximately 0.8×10^6 cells per ml of culture medium.
as §2
A digoxigenin labeled probe specific for strain GS or Z-29, was prepared by PCR reaction in the presence of digoxigenin-dUTP, on a 1-μl aliquot of a DNA extract prepared from infected cells showing manifest CPE. The 5′-3′ primer sequence was GCTAGAACG TATTTGCTGCAGAACG (Seq. Id. No. 1) and […] (Seq. Id. No. 2), delimiting a 259 bp sequence within the U67 gene. The amplified product was separated on agarose gel and extracted from the gel fragment with the QIAquick gel extraction kit (Qiagen, Germany) after which the purified probe was frozen at −20° C.
For quantitation of viral DNA in the infected and drug-treated cell cultures, appropriate aliquots of the total DNA extracts (containing 5 μg of total DNA, as determined spectrophotometrically at 260 nm) were boiled during 10 min, and blotted on a nylon membrane (Hybond-N from Amersham) using a Hoefer slot blot apparatus from Pharmacia (Sweden). After UV cross-linking, the membrane was prehybridized during 30 min at 42° C. with DIG (digoxigenin) easy Hyb solution® (Boehringer Mannheim, Germany). Then, the GS- or Z-29 specific digoxigenin labeled probe was added and allowed to hybridize by incubation overnight at 42° C. […]

[4] = system: Davis strain CMV; assay: Reduction of CMV-induced cytopathicity in HEL cells; format: cell-based, human cytomegalovirus (HCMV); details: HEL cells; for EC50: Human betaherpesvirus 5, 168 h, virus-induced cytopathicity after seven days, read-out: Antiviral EC50 (ug/ml) Davis strain CMV
In short: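 Confluent HEL cells were infected with 100 PFU/well CMV for 1–2 h, then washed and kept in MEM with 2% FCS and test compound. EC50 is the concentration cutting virus-induced cytopathicity by 50% versus untreated control at day 7. Where cytotoxicity interfered, percent protection at the stated concentration is given.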

[5] = system: HIV-1 (IIIB); assay: microbe, parasite or virus in culture; format: cell-based; details: Human immunodeficiency virus 1, IIIB, CCRF-CEM; CEM cells, syncytium formation, day four post infection; read-out: EC50 (ug/ml) HIV-1
In short: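 Human T-lymphoblast CEM cells at roughly 300,000 cells per ml were infected with about 100 CCID50 of HIV-1 (IIIB). Then 100 μl of the infected suspension went into 200 μl microtiter wells holding 100 μl of 5-fold serial compound dilutions. Inhibition of syncytium formation was scored microscopically on day four post infection, and protection against virus-induced cytopathicity was recorded.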

[6] = MOLT-3, read-out: EC50 Based on CPE, MOLT-3 cells, Exp. 1
[7] = MOLT-3, read-out: EC50 Based on CPE, MOLT-3 cells, Exp. 2
[8] = MOLT-3, read-out: EC50 Based on CPE, MOLT-3 cells, Exp. 3
[9] = MOLT-3, read-out: EC50 Based on Viral DMA Detection, MOLT-3 cells, Exp. 1
[10] = MOLT-3, read-out: EC50 Based on Viral DMA Detection, MOLT-3 cells, Exp. 2
[11] = MOLT-3, read-out: EC50 Based on Viral DMA Detection, MOLT-3 cells, Exp. 3

Structure (SMILES)	EC50 [1]	MIC (concentration causing minimal changes in cell morphology) ([2]; Exp. 1)	MIC (concentration causing minimal changes in cell morphology) ([2]; Exp. 2)	MIC (concentration causing minimal changes in cell morphology) ([2]; Exp. 3)	EC50 [3, 6]	EC50 [3, 7]	EC50 [3, 8]	EC50 [3, 9]	EC50 [3, 10]	EC50 [3, 11]	EC50 [4]	EC50 [5]	HIV-2 % Protection ([1]; protection of CEM cells against virus-induced cytopathicity at the concentration in the previous column)	melting point	Antiviral % Inhibition Davis strain CMV ([4]; estimate of percent protection at the concentration in the previous column)
O=S(=O)(Cc1ccccc1)c1cccc[n+]1[O-] [Compound 6, 2-(Benzylsulfonyl)-pyridine-N-oxide]	4.4 µg/mL (≈ 17.7 µM)	100 μg/ml	100 μg/ml	100 μg/ml	17.1 mg/L (≈ 68.6 µM)	8.7 mg/L (≈ 34.9 µM)	12.9 mg/L (≈ 51.7 µM)	28.1 mg/L (≈ 113 µM)	17.3 mg/L (≈ 69.4 µM)	22.7 mg/L (≈ 91.1 µM)	19.5 µg/mL (≈ 78.2 µM)	4.4 µg/mL (≈ 17.7 µM)	–	–	–
Cc1ccc(C)c(CS(=O)(=O)c2cccc[n+]2[O-])c1 [Compound 10, 2-(2,5-Dimethylphenylmethylsulfonyl)pyridine N-oxide]	5.8 µg/mL (≈ 20.9 µM)	50 μg/ml	100 μg/ml	≧50 μg/ml	12.6 mg/L (≈ 45.4 µM)	11.1 mg/L (≈ 40 µM)	11.8 mg/L (≈ 42.5 µM)	21.8 mg/L (≈ 78.6 µM)	9.4 mg/L (≈ 33.9 µM)	15.6 mg/L (≈ 56.2 µM)	10 µg/mL (≈ 36.1 µM)	1.8 µg/mL (≈ 6.49 µM)	–	–	–
Cc1ccc(C)c(CS(=O)(=O)c2c(C)ccc[n+]2[O-])c1 [Compound 165, 2-[((2,5-dimethylphenyl)methyl)sulfonyl]-3-methylpyridine-1-oxide]	> 4 µg/mL	–	–	–	–	–	–	–	–	–	–	0.14 µg/mL (≈ 0.48 µM)	0.0%	171 to 173 °C	–
O=C(O)P(=O)(O)O [PFA, Foscarnet, reference compound]	–	>100 μg/ml	>100 μg/ml	>100 μg/ml	8.9 mg/L (≈ 70.6 µM)	4 mg/L (≈ 31.7 µM)	6.5 mg/L (≈ 51.6 µM)	9.4 mg/L (≈ 74.6 µM)	8.8 mg/L (≈ 69.8 µM)	9.1 mg/L (≈ 72.2 µM)	–	–	–	–	–
[O-][n+]1ccccc1[S+]([O-])Cc1ccccc1 (stereo not shown) [Compound 5, 2-(Benzylsulfinyl)-pyridine-N-oxide]	2.1 µg/mL (≈ 9 µM)	100 μg/ml	100 μg/ml	100 μg/ml	> 100 mg/L	> 200 mg/L	> 100 mg/L	> 100 mg/L	–	> 100 mg/L	> 50 µg/mL	3.4 µg/mL (≈ 14.6 µM)	–	–	0.0%
